# Reference: ChEMBL document CHEMBL1201862, “PubChem BioAssay data set” (2004)
# Calls of active or inactive are those of the source.
# What was measured:
# [1] = target: T1, Polyadenylate-binding protein 1 (Homo sapiens, UniProt P11940); experiment: PABP1 MLLE–PAM2 binding inhibitor potency, dose response, biochemical, fluorescence polarization, FITC-PAM2 peptide (AID 602259); assay type: functional; conditions: read-out: IC50_Mean
# [2] = target: T1, Polyadenylate-binding protein 1; experiment: PABP1 MLLE–PAM2 interaction inhibitors, dose response, miRNA deadenylation inhibitor project, biochemical, fluorescence polarization, Cy5-PAM2 peptide, secondary (AID 602260); assay type: functional; conditions: read-out: IC50_Mean
# [3] = intracellular Trypanosoma cruzi inhibitors in host cells – cell-based, plate reader, cherry-pick samples, set 3, dose response (AID 651818); assay type: functional;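 further: compounds incubated with infected cells for about four days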
# [4] = C. albicans growth with fluconazole, confirmation, fluorescence, retest (AID 2467); assay type: functional, cell-based
# [5] = NIH-3T3 fibroblast cytotoxicity, dose response, cytotoxicity control, cell-based, fluorescence, Alamar Blue, secondary assay (AID 2327); assay type: functional;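 further: NIH-3T3 mouse fibroblasts cultured with fluconazole at 8 µg/mL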
# [6] = target: Genome polyprotein (dengue virus type 2, UniProt P29990); experiment: Dengue-2 NS5 methyltransferase inhibitors, primary screen, biochemical, confirmation dose response (AID 588689); assay type: functional
# [7] = off-target signal loss in HeLa-CEM21 co-culture – HeLa F-luc CTL cells, cherry-picked, counter-screen for HIV-1 Env fusion inhibitor project, dose response (AID 652040); assay type: functional, cell-based;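 further: potency for signal decrease marking cytotoxic or nonspecific inhibition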
# [8] = target: Heat shock protein HSP 90-alpha (Homo sapiens, UniProt P07900); assay type: functional, organism-based
# [9] = system: Streptococcus; experiment: Group A Streptococcus viability loss, dose response, counter-screen for streptokinase expression inhibitor project, luminescence, BacTiterGlo (AID 1915); assay type: functional, organism-based;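 further: potency for reduction of bacterial viability or growth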
# [10] = system: Streptococcus sp. 'group A'; experiment: growth inhibition of control SK(-) GAS strain, dose response, counter-screen for streptokinase expression inhibitor project, luminescence, kanamycin, BacTiterGlo, confirmation (AID 1900); assay type: functional, organism-based
# [11] = target: T2, Streptokinase A (Streptococcus pyogenes serotype M1, UniProt P10520); experiment: S. pyogenes streptokinase expression inhibitors, potency, dose response, plasminogen activation absorbance, OD405 (AID 1914); assay type: functional, Streptococcus pyogenes M1 GAS;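 further: secreted streptokinase activity via plasminogen activation per viability signal from cell pellet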
# T2 sequence (P10520 whole entry): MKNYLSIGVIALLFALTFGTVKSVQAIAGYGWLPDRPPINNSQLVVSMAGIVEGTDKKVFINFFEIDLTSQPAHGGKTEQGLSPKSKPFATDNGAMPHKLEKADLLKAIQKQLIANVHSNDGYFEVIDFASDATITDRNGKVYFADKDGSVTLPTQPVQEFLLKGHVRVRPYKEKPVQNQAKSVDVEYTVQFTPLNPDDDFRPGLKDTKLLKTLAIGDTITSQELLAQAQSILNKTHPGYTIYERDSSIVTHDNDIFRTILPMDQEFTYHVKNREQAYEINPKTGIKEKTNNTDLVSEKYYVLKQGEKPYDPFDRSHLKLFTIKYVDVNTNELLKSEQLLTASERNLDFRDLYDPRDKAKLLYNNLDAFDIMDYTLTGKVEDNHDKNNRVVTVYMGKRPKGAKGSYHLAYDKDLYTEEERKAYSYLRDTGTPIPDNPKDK
# [12] = target: T3, Protein RecA (Mycobacterium tuberculosis, UniProt P9WHJ3); experiment: Fluorescence Cell-Free Homogeneous Dose Retest to Identify Inhibitors of RecA-Intein Splicing Activity. [Related pubchem assays (depositor defined):AID2097, AID2223, AID489010, AID492950]; assay type: functional
# T3 sequence (P9WHJ3 whole entry): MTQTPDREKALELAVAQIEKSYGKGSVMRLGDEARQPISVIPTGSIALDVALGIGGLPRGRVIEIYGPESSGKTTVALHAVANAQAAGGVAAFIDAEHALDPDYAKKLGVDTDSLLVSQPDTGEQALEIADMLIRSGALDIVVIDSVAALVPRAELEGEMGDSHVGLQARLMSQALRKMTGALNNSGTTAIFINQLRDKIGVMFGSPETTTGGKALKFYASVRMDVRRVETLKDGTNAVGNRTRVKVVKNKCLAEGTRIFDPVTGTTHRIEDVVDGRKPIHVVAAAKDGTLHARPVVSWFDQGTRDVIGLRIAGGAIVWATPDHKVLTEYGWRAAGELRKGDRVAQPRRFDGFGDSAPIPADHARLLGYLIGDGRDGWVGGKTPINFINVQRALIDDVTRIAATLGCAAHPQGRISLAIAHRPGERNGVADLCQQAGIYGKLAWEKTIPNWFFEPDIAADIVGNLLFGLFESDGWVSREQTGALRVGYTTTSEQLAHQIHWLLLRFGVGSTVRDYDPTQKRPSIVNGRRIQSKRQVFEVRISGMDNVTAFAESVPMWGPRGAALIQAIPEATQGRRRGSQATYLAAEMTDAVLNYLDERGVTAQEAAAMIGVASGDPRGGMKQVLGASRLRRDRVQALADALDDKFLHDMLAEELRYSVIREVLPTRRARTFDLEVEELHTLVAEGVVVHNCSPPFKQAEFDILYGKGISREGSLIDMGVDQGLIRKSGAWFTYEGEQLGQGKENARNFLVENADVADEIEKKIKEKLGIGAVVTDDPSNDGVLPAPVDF
# [13] = target: T4, Replicative DNA helicase DnaB (Mycobacterium tuberculosis, UniProt P9WMR3); experiment: DnaB intein splicing inhibitors, dose response, biochemical, cell-free fluorescence (AID 449749); assay type: functional
# T4 sequence (P9WMR3 whole entry): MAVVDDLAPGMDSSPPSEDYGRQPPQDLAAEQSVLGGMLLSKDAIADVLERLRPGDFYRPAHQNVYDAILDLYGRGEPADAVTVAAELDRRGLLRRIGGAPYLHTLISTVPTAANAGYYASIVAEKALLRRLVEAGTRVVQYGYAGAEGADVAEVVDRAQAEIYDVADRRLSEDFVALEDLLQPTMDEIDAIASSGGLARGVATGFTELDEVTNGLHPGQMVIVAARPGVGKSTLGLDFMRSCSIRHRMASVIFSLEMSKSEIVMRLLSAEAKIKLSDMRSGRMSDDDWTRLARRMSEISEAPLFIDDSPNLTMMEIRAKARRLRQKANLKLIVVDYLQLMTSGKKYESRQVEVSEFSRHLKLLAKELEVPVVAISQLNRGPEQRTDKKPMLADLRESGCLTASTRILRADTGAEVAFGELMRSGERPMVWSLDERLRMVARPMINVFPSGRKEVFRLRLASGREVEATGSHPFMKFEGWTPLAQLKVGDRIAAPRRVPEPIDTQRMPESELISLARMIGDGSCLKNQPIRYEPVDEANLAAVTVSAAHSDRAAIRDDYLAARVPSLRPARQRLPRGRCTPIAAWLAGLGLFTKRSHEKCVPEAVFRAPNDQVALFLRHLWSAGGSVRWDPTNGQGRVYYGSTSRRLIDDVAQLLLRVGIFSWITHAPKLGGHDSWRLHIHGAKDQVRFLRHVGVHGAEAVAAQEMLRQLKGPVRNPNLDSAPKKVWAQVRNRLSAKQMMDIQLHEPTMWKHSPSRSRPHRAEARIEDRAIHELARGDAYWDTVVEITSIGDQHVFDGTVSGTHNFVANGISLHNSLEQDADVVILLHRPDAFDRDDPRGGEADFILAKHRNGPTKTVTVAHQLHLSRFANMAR
# [14] = system: INS1; experiment: beta cell apoptosis inhibitors, cytokine rescue, dose response, luminescence, retest (AID 449756); assay type: functional, cell-based; conditions: Rattus norvegicus;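 further: cell death triggered by IL-1 beta plus TNF-alpha plus IFN-gamma mixture; protective hits raise ATP signal compared with cytokine alone wells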
# [15] = inhibitors of clade B AD8 Env fusion, dose response, cell-based, cherry-pick (AID 652062); assay type: functional;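 further: luciferase signal from cell-cell fusion driven by HIV-1 clade B AD8 Env; potency is for inhibitors of fusion seen as a drop in luminescence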
# [16] = inhibitors of HIV Env-driven cell fusion, dose response, cherry-pick (AID 652057); assay type: functional, cell-based
# [17] = inhibitors of intracellular T. cruzi replication, confirmation, NIH3T3 host cells, beta-gal luminescence (AID 2044); assay type: functional, cell-based;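 further: intracellular parasites grown in NIH/3T3 mouse fibroblasts as host cells; luminescent beta-galactosidase reporter signal from transgenic T. cruzi replicating inside host cells; inhibitors lower the luminescence signal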
# [18] = cytotoxicity toward NIH3T3 fibroblasts, dose response, counter-screen, cell-based, ATP luminescence, mouse fibroblasts (AID 2010); assay type: functional;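 further: cells exposed to compound for about 90 hours before reading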
# T1 sequence (P11940 whole entry): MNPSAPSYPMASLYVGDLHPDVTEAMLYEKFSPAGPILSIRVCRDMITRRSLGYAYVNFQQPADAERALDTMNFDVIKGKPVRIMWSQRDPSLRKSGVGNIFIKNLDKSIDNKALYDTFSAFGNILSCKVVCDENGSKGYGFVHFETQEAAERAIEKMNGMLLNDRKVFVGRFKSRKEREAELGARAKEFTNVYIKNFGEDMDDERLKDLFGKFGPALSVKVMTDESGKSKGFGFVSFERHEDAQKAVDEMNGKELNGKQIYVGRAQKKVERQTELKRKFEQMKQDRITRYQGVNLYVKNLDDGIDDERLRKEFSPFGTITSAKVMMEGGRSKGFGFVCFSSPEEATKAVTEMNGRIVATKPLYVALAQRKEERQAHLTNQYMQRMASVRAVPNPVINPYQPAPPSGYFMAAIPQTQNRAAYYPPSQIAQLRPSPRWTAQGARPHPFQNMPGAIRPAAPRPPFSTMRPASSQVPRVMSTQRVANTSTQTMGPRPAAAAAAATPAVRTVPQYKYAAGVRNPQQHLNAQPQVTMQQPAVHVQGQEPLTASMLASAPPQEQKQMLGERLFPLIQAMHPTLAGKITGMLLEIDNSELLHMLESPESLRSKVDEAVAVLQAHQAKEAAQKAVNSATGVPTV
# Genome polyprotein, sequence (P29990 2492-3391 limits assumed): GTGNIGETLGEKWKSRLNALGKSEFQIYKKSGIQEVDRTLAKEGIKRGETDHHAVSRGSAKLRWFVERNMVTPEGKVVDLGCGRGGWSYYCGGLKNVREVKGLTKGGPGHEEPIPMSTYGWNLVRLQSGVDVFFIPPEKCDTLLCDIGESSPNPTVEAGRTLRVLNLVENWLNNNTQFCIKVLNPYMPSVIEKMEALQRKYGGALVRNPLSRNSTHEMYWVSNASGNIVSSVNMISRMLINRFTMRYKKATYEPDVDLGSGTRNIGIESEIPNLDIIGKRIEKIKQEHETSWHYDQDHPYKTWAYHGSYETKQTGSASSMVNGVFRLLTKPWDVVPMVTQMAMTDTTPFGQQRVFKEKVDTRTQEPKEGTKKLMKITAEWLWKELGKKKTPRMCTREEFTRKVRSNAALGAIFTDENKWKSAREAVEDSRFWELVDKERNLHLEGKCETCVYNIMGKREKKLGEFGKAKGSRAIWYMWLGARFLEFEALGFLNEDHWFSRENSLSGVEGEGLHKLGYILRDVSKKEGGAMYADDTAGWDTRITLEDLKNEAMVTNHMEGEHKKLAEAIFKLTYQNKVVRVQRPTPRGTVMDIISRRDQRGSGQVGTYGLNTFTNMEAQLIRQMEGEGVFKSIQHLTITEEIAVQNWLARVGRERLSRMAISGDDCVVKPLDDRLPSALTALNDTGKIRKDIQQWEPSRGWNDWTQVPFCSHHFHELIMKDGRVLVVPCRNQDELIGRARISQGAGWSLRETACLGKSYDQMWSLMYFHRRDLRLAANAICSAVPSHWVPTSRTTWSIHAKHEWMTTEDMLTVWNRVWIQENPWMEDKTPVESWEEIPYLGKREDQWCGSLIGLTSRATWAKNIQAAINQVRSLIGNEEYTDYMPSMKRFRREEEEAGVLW
smiles,measurement,setting,value
O=C(COc1ccccc1)Nc1nc(-c2ccncc2)cs1,IC50,[1],> 66 µM (inactive)
same,IC50,[2],> 66 µM (inactive)
C[C@@H]1CN([C@@H](C)CO)C(=O)Cc2cc(NC(=O)Nc3ccc(C(F)(F)F)cc3)ccc2O[C@@H]1CN(C)CC1CCCCC1,AC50,[3],1.93 µM (active)
N=C(N)SCP(=O)(c1ccccc1)c1ccccc1,IC50,[1],> 66 µM (inactive)
same,IC50,[2],> 66 µM (inactive)
Cc1ccc(CNC(=O)CSCc2cccc(F)c2)cc1,EC50,[4],> 38 µM (not active)
same,EC50,[5],> 150 µM (inactive)
O=C(CSc1nc(O)c(Cc2ccccc2)c(=O)[nH]1)Nc1ccccc1,IC50,[1],> 66 µM (inactive)
same,IC50,[2],> 66 µM (inactive)
C[C@H](CO)N1C[C@H](C)[C@H](CN(C)Cc2ccc(C(=O)Nc3ccccc3N)cc2)Oc2ccc(NC(=O)Nc3ccccc3)cc2CC1=O,AC50,[3],2.98 µM (active)
CC(NC(=O)CSC1=NCCS1)c1ccccc1 (stereo unspecified),IC50,[1],> 66 µM (inactive)
same,IC50,[2],> 66 µM (inactive)
COC1C=COC2(C)Oc3c(C)c(O)c4c(O)c(c(CN5CCN(C)CC5)c(O)c4c3C2=O)NC(=O)C(C)=CC=CC(C)C(O)C(C)C(O)C(C)C(OC(C)=O)C1C (stereo unspecified),IC50,[6],96.6 µM (active)
C[C@H](CO)N1C[C@H](C)[C@@H](CN(C)CC2CCCCC2)Oc2c(NS(=O)(=O)c3cccs3)cccc2C1=O,AC50,[3],19.7 µM (active)
CC(C)(C)c1ccc(-n2ncc3c2CCCC3NC(=O)CN2CCCC2=O)cc1 (stereo unspecified),AC50,[7],> 32 µM (inactive)
Cc1noc(C)c1S(=O)(=O)Nc1ccc2c(c1)C(=O)N([C@H](C)CO)C[C@H](C)[C@H](CN(C)Cc1ccc(C(=O)Nc3ccccc3N)cc1)O2,AC50,[3],3.11 µM (active)
CCc1ccc(Nc2ccc(C(=O)O)cc2[N+](=O)[O-])cc1,IC50,[6],> 100 µM (active)
O=C(O)c1cccc2c1Cc1cc([N+](=O)[O-])ccc1-2,AC50,[8],0.357 µM (active)
CCOC(=O)c1sc(N2C(=O)C(O)=C(C(=O)c3ccco3)C2c2cccc(Cl)c2)nc1C (stereo unspecified),EC50,[4],1.41 µM (active)
same,EC50,[5],30.5 µM (active)
same,EC50,[9],8.62 µM (active)
same,EC50,[10],7.41 µM (active)
same,EC50,[11],> 150 µM (not active)
O=C(Cc1ccc([N+](=O)[O-])cc1)NNC(=O)c1ccc2c(c1)OCO2,EC50,[4],> 38 µM (not active)
same,EC50,[5],> 150 µM (inactive)
COc1cccc(/C=C2\SC(=S)N(C(C(=O)O)c3ccccc3)C2=O)c1OC (stereo unspecified),IC50,[6],49.7 µM (active)
Cc1ccc(N2C(=O)C(Cl)=C(N3CCOCC3)C2=O)cc1Cl,EC50,[12],2.61 µM (active)
same,IC50,[6],34.7 µM (active)
same,AC50,[13],6.76 µM (active)
O=C1NC(=O)C(=Cc2c(Cl)cccc2Cl)C(=O)N1,IC50,[6],43.4 µM (active)
O=C1CNC(=O)/C1=C/c1ccc(Br)cc1,IC50,[6],> 100 µM (active)
O=C(Nc1cccc(C(F)(F)F)c1)Oc1ccc(Cl)c2cccnc12,AC50,[14],7.15 µM (active)
same,AC50,[8],3.86 µM (active)
same,EC50,[9],4.98 µM (active)
same,EC50,[10],2.54 µM (active)
Cc1ccc(S(=O)(=O)NCC(=O)OCC(=O)NCc2ccc3c(c2)OCO3)cc1,AC50,[15],5.22 µM (active)
same,AC50,[16],24 µM (active)
Cc1cc(C)cc(N2C(=O)CC(Sc3ccccc3C(=O)O)C2=O)c1 (stereo unspecified),IC50,[1],> 66 µM (inactive)
same,IC50,[2],> 66 µM (inactive)
CC(OC(=O)CSc1ccc([N+](=O)[O-])cc1)C(=O)NC1CC1 (stereo unspecified),IC50,[1],> 66 µM (inactive)
same,IC50,[2],> 66 µM (inactive)
CC(C)c1ccc(NC(=O)Cc2cn(C)c3ccccc23)cc1,EC50,[4],> 38 µM (not active)
same,EC50,[5],> 150 µM (inactive)
O=C(NC(=S)Nc1ccc(Oc2ccccc2)cc1)c1ccc(Cl)cc1,IC50,[1],> 66 µM (inactive)
same,EC50,[17],2.34 µM (active)
same,EC50,[18],> 60 µM (not active)
same,IC50,[2],> 66 µM (inactive)
Cc1ccc(S(=O)(=O)N(C)C[C@H]2Oc3cc(-c4cccc(F)c4)ccc3S(=O)(=O)N([C@@H](C)CO)C[C@H]2C)cc1,AC50,[15],6.67 µM (active)
same,AC50,[16],1.47 µM (active)
Nc1c(C(=O)Nc2ccc3c(c2)OCCO3)nnn1Cc1ccccc1Cl,AC50,[14],0.653 µM (active)
same,AC50,[8],10.3 µM (active)
